Test results: US9879049B2, “Glycopeptide antibiotic analogs effective against vancomycin-resistant bacterial strains” (The Scripps Research Institute, priority 2011, dated 2018)
≈ marks a conversion by molar mass, not a printed value. Like-named read-outs stand apart in the source and are kept apart here.

Legend:
N,N′-Ac2-Lys-D-Ala-D-Lac = assay: Titration binding assay (UV difference) with model D-Ala-D-Lac ligand; details: for ligand, Ka, 7, X = O: model ligand 7 (D-Ala-D-Lac), 0.02 M sodium citrate buffer pH 5.1
Method: Titration Binding Assays with Model D-Ala-D-Ala and D-Ala-D-Lac Ligands 2 and 4.
(§1) The binding constants for compounds 6 and 8 for association with the model ligands N,N′-Ac2-Lys-D-Ala-D-Ala (2) and N,N′-Ac2-Lys-D-Ala-D-Lac (4) were determined according to literature protocol.^30 UV difference measurements were carried out on a CARY 3E UV-Vis spectrometer. UV scans were run with a baseline correction that consisted of 0.02 M sodium citrate buffer (pH=5.1) and covered the range from 200 to 345 nm. A solution of 6 or 8 (7.7×10^−5M in 0.02 M sodium citrate buffer) was placed into a quartz UV cuvette (0.1 cm path length) and the UV spectrum recorded versus a reference cell containing 0.02 M sodium citrate buffer. UV spectra were recorded after each addition of a solution of N,N′-Ac2-Lys-D-Ala-D-Ala (2) or N,N′-Ac2-Lys-D-Ala-D-Lac (4) in 0.02 M sodium citrate buffer to each cell from 0.1 to 60.0 equivalents. The absorbance value at the λmax was recorded and the running change in absorbance, ΔAx equiv (Ainitial−Ax equiv), measured. The number of ligand equivalents was plotted versus ΔA to afford the ligand binding titration curve. The break point of this curve is the saturation point of the system and its xy coordinates were determined by establishing the intersection of the linear fits of the pre- and post-saturation curves. ΔAsaturation was calculated and employed to determine the concentration of free ligand in solution at each titration point. ΔA was plotted versus ΔA/free ligand concentration to give a Scatchard plot from which the binding constants were determined.
(§2) Titration Binding Assays with Model D-Ala-D-Ala and D-Ala-D-Lac Ligands 6 and 7.
(§3) The binding constants for all compounds for association with the model ligands N,N′-Ac2-Lys-D-Ala-D-Ala (6) and N,N′-Ac2-Lys-D-Ala-D-Lac (7) were determined according to literature protocol. UV difference experiments were carried out on a CARY 3E UV-Vis spectrometer. UV scans were run with a baseline correction that consisted of 0.02 M sodium citrate buffer (pH=5.1) and covered a range from 200 to 345 nm. A solution of the vancomycin aglycon derivative (7.7×10^−5 M in 0.02 M sodium citrate buffer) was placed into a quartz UV cuvette (0.1 cm path length) and the UV spectrum recorded versus a reference cell containing 0.02 M sodium citrate buffer. UV spectra were recorded after each addition of a solution of N,N′-Ac2-Lys-D-Ala-D-Ala (6) or N,N′-Ac2-Lys-D-Ala-D-Lac (7) in 0.02 M sodium citrate buffer to each cell from 0.1 to 60.0 equivalents. The absorbance value at the λmax was recorded and the running change in absorbance, ΔAx equiv (Ainitial−Ax equiv), measured. The number of ligand equivalents was plotted versus ΔA to afford the ligand binding titration curve. The break point of this curve is the saturation point of the system and its xy coordinates were determined by establishing the intersection of the linear fits of the pre and postsaturation curves. ΔAsaturation was calculated and employed to determine the concentration of free ligand in solution at each titration point. ΔA was plotted versus ΔA/free ligand concentration to give a Scatchard plot from which the binding constants were determined.

[1] = amidine group; cited from earlier work
N,N′-Ac2-Lys-D-Ala-D-Ala = assay: Titration binding assay (UV difference) with model D-Ala-D-Ala ligand; details: for ligand, Ka, 6, X = NH: model ligand 6 (D-Ala-D-Ala), 0.02 M sodium citrate buffer pH 5.1; for Ka(6/7): ratio of Ka for ligand 6 (D-Ala-D-Ala) to ligand 7 (D-Ala-D-Lac)
Method: as §1, §2, §3

[2] = test system: E. faecalis (BM4166, VanA VRE); assay: MIC by broth microdilution, VanA VRE; type: cell-based; details: for MIC: Enterococcus faecalis, read-out: VanA MIC (minimum inhibitory conc.)
Method: E. faecalis (BM4166) was propagated and MIC's were determined in duplicate by the broth microdilution method according to standard microbiological practice. See: Clinical and Laboratory Standards Institute. Methods for Dilution Antimicrobial Susceptibility Tests for Bacteria That Grow Aerobically; Approved Standard, 7th ed.; CLSI document M07-A8; Clinical and Laboratory Standards Institute: Wayne, Pa., 2009. Cudic, M.; Condie, B. A.; Weiner, D. J.; Lysenko, E. S.; Xiang, Z. Q.; Insug, O.; Bulet, P.; Otvos, L., Jr.; Peptides 2002, 23, 271.
(§4) S. Aureus (ATCC 25923) and E. Faecalis (BM4166) were propagated and MICs were determined in duplicate by the broth microdilution method according to standard microbiological practice. (Clinical and Laboratory Standards Institute. Methods for Dilution Antimicrobial Susceptibility Tests for Bacteria That Grow Aerobically; Approved Standard, 7th ed.; CLSI document M07-A8; Clinical and Laboratory Standards Institute: Wayne, Pa., 2009.)

[3] = test system: sensitive bacterial strains; assay: Activity against sensitive bacterial strains; type: cell-based; details: read-out: MIC against sensitive bacterial strains
S. Aureus (ATCC 25923) = assay: MIC by broth microdilution, vancomycin-sensitive S. aureus; type: cell-based; details: Staphylococcus aureus, ATCC25923
Method: as §4

[4] = test system: Vancomycin-resistant bacteria (VanA and VanB); details: resistant bacteria with D-Ala-D-Lac precursor; cited from earlier work
[5] = test system: substrate model 3 (X═CH2); details: substrate model 3 (X═CH2) versus model 2; cited from earlier work
[6] = test system: D-Ala-D-Lac, substrate model 4 (X═O); details: cited from earlier work

In the case of `CN[C@H](CC(C)C)C(=O)N[C@H]1C(=O)N[C@@H](CC(N)=O)C(=O)N[C@H]2C(=N)NC3C(=O)N[C@H](C(=O)N[C@H](C(=O)O)c4cc(O)cc(O)c4-c4cc3ccc4O)[C@H](O)c3ccc(c(Cl)c3)Oc3cc2cc(c3O)Oc2ccc(cc2Cl)[C@H]1O` [Compound 4, [Ψ[C(═NH)NH]Tpg^4]Vancomycin Aglycon], the “ligand, Ka, 7, X = O” value (N,N′-Ac2-Lys-D-Ala-D-Lac) is listed as 69000 M⁻¹, the pKa [1] is listed as 12.5 and the “ligand, Ka, 6, X = NH” value (N,N′-Ac2-Lys-D-Ala-D-Ala) is listed as 73000 M⁻¹. The “Ka(6/7)” value (N,N′-Ac2-Lys-D-Ala-D-Ala) was 1.05 and the MIC ([2]; VRE) was 0.31 µg/mL (≈ 0.271 µM).

For `CN[C@H](CC(C)C)C(=O)N[C@H]1C(=O)N[C@@H](CC(N)=O)C(=O)N[C@H]2C(=O)N[C@H]3C(=O)N[C@H](C(=O)N[C@H](C(=O)O)c4cc(O)cc(O)c4-c4cc3ccc4O)[C@H](O)c3ccc(c(Cl)c3)Oc3cc2cc(c3O)Oc2ccc(cc2Cl)[C@H]1O` [Compound 2, vancomycin aglycone, reference compound], the “ligand, Ka, 7, X = O” value (N,N′-Ac2-Lys-D-Ala-D-Lac) was 120 M⁻¹, the MIC [3] was 0.3 to 2 µg/mL (≈ 0.262 to 1.75 µM) and the “ligand, Ka, 6, X = NH” value (N,N′-Ac2-Lys-D-Ala-D-Ala) was 170000 M⁻¹. For the same compound, the “Ka(6/7)” value (N,N′-Ac2-Lys-D-Ala-D-Ala) was 1400 and the MIC ([2]; VRE) was 640 µg/mL (≈ 559 µM).

With `CN=C1NC2C(=O)N[C@H](C(=O)N[C@H](CO)c3cc(O)cc(O)c3-c3cc2ccc3O)[C@H](O)c2ccc(c(Cl)c2)Oc2cc3cc(c2O)Oc2ccc(cc2Cl)[C@@H](O)[C@@H](NC(=O)[C@@H](CC(C)C)NC)C(=O)N[C@@H](CC(N)=O)C(=O)N[C@@H]13` [Compound 11] the “times less effective than parent amidine 10 at binding D-Ala-D-Lac ligand 7” value (N,N′-Ac2-Lys-D-Ala-D-Lac; relative to 10) was 30 to 50 times, the “relative affinity for ligands 6 and 7” value (N,N′-Ac2-Lys-D-Ala-D-Ala; D-Ala-D-Ala versus D-Ala-D-Lac, result in words) was “near equal affinities” and the “times less effective than parent amidine 10 at binding D-Ala-D-Ala ligand 6” value (N,N′-Ac2-Lys-D-Ala-D-Ala; relative to 10) was 30 to 50 times. For the same compound, the MIC ([2]; E. faecalis BM4166, VanA VRE) was 20 µg/mL (≈ 17.5 µM) and the “fold less potent than 10 against VanA VRE” value ([2]; relative to parent amidine 10) was 60 fold.

For `CN[C@H](CC(C)C)C(=O)N[C@H]1C(=O)N[C@@H](CC(N)=O)C(=O)N[C@H]2C(=S)NC3C(=O)N[C@H](C(=O)N[C@H](C(=O)O)c4cc(O)cc(O)c4-c4cc3ccc4O)[C@H](O)c3ccc(c(Cl)c3)Oc3cc2cc(c3O)Oc2ccc(cc2Cl)[C@H]1O` [Compound 5, [Ψ[C(═S)NH]Tpg^4]Vancomycin Aglycon], the “ligand, Ka, 7, X = O” value (N,N′-Ac2-Lys-D-Ala-D-Lac) was 11 M⁻¹, the “binding to D-Ala-D-Lac” value (N,N′-Ac2-Lys-D-Ala-D-Lac; result in words, FIG. 3) was “completely disrupt binding” and the “ligand, Ka, 6, X = NH” value (N,N′-Ac2-Lys-D-Ala-D-Ala) was 170 M⁻¹. For the same compound, the “binding to D-Ala-D-Ala” value (N,N′-Ac2-Lys-D-Ala-D-Ala; result in words, FIG. 3) was “completely disrupt binding”, the MIC ([2]; VRE) was over 640 µg/mL and the antimicrobial activity ([2]; result in words, FIG. 3) was “lacked any antimicrobial activity”.

In the case of `CN[C@H](CC(C)C)C(=O)N[C@H]1C(=O)N[C@@H](CC(N)=O)C(=O)N[C@H]2C(=NC#N)NC3C(=O)N[C@H](C(=O)N[C@H](CO)c4cc(O)cc(O)c4-c4cc3ccc4O)[C@H](O)c3ccc(c(Cl)c3)Oc3cc2cc(c3O)Oc2ccc(cc2Cl)[C@H]1O` (single isomer, unassigned) [Compound 14], the “binding of D-Ala-D-Lac” value (N,N′-Ac2-Lys-D-Ala-D-Lac; result in words) is listed as “failed to bind”, the MIC (S. Aureus (ATCC 25923)) is listed as 10 µg/mL (≈ 8.67 µM) and the pKa [1] is listed as 1. The “binding of D-Ala-D-Ala versus D-Ala-D-Lac” value (N,N′-Ac2-Lys-D-Ala-D-Ala; D-Ala-D-Ala bound more effectively than D-Ala-D-Lac) was at least 120 fold, the “affinity for D-Ala-D-Ala, fold less than parent amide 8 or amidine 10” value (N,N′-Ac2-Lys-D-Ala-D-Ala; relative to 8 or 10) was 20 fold and the MIC ([2]; E. faecalis BM4166, VanA VRE) was over 40 µg/mL.

For `CN[C@H](CC(C)C)C(=O)N[C@H]1C(=O)N[C@@H](CC(N)=O)C(=O)N[C@H]2C(=O)N[C@H]3C(=O)N[C@H](C(=O)N[C@H](C(=O)O)c4cc(O)cc(O)c4-c4cc3ccc4O)[C@H](O)c3ccc(c(Cl)c3)Oc3cc2cc(c3O[C@@H]2O[C@H](CO)[C@@H](O)[C@H](O)[C@H]2O[C@H]2C[C@](C)(N)[C@H](O)[C@H](C)O2)Oc2ccc(cc2Cl)[C@H]1O` [vancomycin], the “loss in antimicrobial activity” value [4] is given as 1000 fold, the “free energy loss of binding” value [5] is given as “about 1.5 kcal/mole” and the “loss in Gibbs free energy of binding ΔG°” value ([6]; 25° C., substrate model 4 (X═O) versus model 2) is given as 3.1 kcal/mol. For the same compound, the “reduction of binding affinity for the altered ligand D-Ala-D-Lac” value ([6]; versus D-Ala-D-Ala) was 1000 fold.

In the case of “[Ψ-[CH2NH]Tpg^4]vancomycin aglycon [Compound 3, reference compound]”, the “ligand, Ka, 7, X = O” value (N,N′-Ac2-Lys-D-Ala-D-Lac) is reported as 5200 M⁻¹, the “ligand, Ka, 6, X = NH” value (N,N′-Ac2-Lys-D-Ala-D-Ala) is reported as 4800 M⁻¹ and the “Ka(6/7)” value (N,N′-Ac2-Lys-D-Ala-D-Ala) is reported as 0.9. For the same compound, the “VanA MIC (minimum inhibitory conc.)” value ([2]; E. faecalis BM4166, VanA VRE) was 31 µg/mL.
